Target: T1, Fatty acid amide hydrolase (FAAH) (Mus musculus, UniProt O08914)
T1 construct: endogenous FAAH in BV2 microglial cell membrane fraction
T1 sequence (O08914 1-579): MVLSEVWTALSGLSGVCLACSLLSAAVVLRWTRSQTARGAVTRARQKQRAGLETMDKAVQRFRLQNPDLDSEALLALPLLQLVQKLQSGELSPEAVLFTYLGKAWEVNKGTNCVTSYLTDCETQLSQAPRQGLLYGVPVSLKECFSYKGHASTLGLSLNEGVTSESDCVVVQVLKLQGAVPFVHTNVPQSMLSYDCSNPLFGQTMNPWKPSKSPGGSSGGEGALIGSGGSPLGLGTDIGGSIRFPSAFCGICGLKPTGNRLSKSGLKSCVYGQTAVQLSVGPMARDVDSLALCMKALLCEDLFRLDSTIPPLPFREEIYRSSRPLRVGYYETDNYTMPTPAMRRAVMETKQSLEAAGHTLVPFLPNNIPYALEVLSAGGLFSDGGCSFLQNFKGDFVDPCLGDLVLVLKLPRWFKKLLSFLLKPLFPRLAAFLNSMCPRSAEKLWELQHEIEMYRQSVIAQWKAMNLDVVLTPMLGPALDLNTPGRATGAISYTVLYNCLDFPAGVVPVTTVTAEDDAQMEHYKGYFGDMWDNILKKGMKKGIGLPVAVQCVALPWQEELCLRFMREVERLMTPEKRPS
Test: radiolabeled AEA hydrolysis in BV2 membranes; blocked by FAAH inhibitors, reduced […] by FAAH siRNA
Assay type: cell-based

SMILES: CCCCC/C=C\C/C=C\C/C=C\C/C=C\CCCC(=O)NCCO [anandamide]
- radiolabeled AEA hydrolysis in BV2 membranes; blocked by FAAH inhibitors, reduce: These results indicated that all AEA hydrolysis activity was attributed to FAAH in BV2 microglial cells.

Source: article PMC6562696, “Anti-Inflammatory Effects by Pharmacological Inhibition or Knockdown of Fatty Acid Amide Hydrolase in BV2 Microglial Cells” (Cells, 2019)
